From paper PMC11742723, “The clinical-stage drug BTZ-043 accumulates in murine tuberculosis lesions and efficiently acts against Mycobacterium tuberculosis” (Nature Communications, 2025)
Values joined by “and” are separate entries in the source; they are usually repeats but may differ in a detail not shown here. Equal values may be shown once.

Key:
[1] = tested on: Mtb H37Rv; assay: BTZ-043 dose-fractionation study in Mtb-infected BALB/c mice (lung CFU); type: in vivo, Mycobacterium tuberculosis; settings: for pulmonary CFU counts / mouse: 6 weeks of treatment, individual female mice
[2] = tested on: Mtb H37Rv; assay: BTZ-043 treatment for 10 days of Mtb-infected IL-13tg mice (pulmonary CFU); type: in vivo, Mycobacterium tuberculosis
[3] = tested on: Mtb; assay: Lesional efficacy: LCM of necrotic core and Mtb 16S rRNA molecular bacterial load assay (MBLA); type: in vivo, Mycobacterium tuberculosis; settings: for CFU / mm3 (MBLA): BTZ-043 [250 mg/kg], individual mice, 250 mg/kg
[4] = IL-13tg, mouse, in vivo
[5] = in vitro; settings: human
[6] = MALDI imaging and penetration analysis in centrally necrotizing granulomas; settings: for BTZ-043 distribution in granulomas by MALDI imaging: IL-13tg mice
[7] = IL-13tg mice, 250 mg/kg/day, 10 days

C[C@H]1COC2(CCN(c3nc(=O)c4cc(C(F)(F)F)cc([N+](=O)[O-])c4s3)CC2)O1 [BTZ-043]
pulmonary CFU counts / mouse ([1]; 2.5 mg/kg BTZ-043 BID): 20001 CFU counts / mouse and 18001 CFU counts / mouse and 34001 CFU counts / mouse and 55001 CFU counts / mouse | pulmonary CFU counts / mouse ([1]; 2.5 mg/kg BTZ-043 QD): 50001 CFU counts / mouse and 110001 CFU counts / mouse and 82501 CFU counts / mouse | pulmonary CFU counts / mouse ([1]; 5 mg/kg BTZ-043 QD): 160001 CFU counts / mouse and 92501 CFU counts / mouse | CFU reduction compared to the untreated control ([1]; BALB/c lungs, 250 mg/kg QD microcrystalline BTZ-043, 6 weeks): 3.7 log10 CFU | effect of fractionation of the dose into two administrations (BID vs QD, identical total dose) ([1]; amorphous BTZ-043, 5 to 50 mg/kg/day, 6 weeks): modest, but consistent, trend towards increased mycobactericidal activity | pulmonary CFU / mouse ([2]; BTZ-043 [250 mg/kg], 2 weeks of therapy, individual mice, female and male, 250 mg/kg): 22635294 CFU / mouse and 34160000 CFU / mouse and 22750000 CFU / mouse and 19564286 CFU / mouse and 20000000 CFU / mouse | reduction of the bacterial load versus start of treatment ([2]; IL-13tg mice lungs, 250 mg/kg/day, 10 days): 0.9 log10 CFU | reduction of the bacterial burden ([2]; IL-13tg mice lungs, 250 mg/kg/day, 10 days, versus before treatment): 86% | bacterial burden after therapy as share of the initial CFU counts [2, 7]: 13.8% | mean pulmonary bacterial burden after treatment [2, 7]: 4.8 × 10^7 CFU | pulmonary bacterial burden after therapy ([2]; IL-13tg mice, 250 mg/kg/day, 10 days, mean): 7.69 log10 CFU | pulmonary CFU counts / mouse ([2]; IL-13tg mice, female, 10 days BTZ-043 250 mg/kg, 250 mg/kg): 22032000 and 27394286 | CFU / mm3 (MBLA) ([3]; 2 weeks of therapy): 322664 CFU / mm3 and 2329437 CFU / mm3 | CFU / mm3 (MBLA) ([3]; 4-6 weeks of therapy): 228171 CFU / mm3 and 91947 CFU / mm3 and 205657 CFU / mm3 | Mtb 16S rRNA expression in the necrotic center compared to the vehicle group ([3]; IL-13tg mice, 250 mg/kg 5 times a week, 2 weeks of treatment): decreased | bacterial load in the necrotic center ([3]; IL-13tg mice, 250 mg/kg 5 times a week, further course of therapy (4 to 6 weeks)): strongly reduced | reduction of bacterial burden in necrotic areas of granulomas (Mtb 16S rRNA) ([3]; IL-13tg mice, LCM-isolated necrotic areas): 2 log10 | penetration into the lesion by MALDI imaging [4]: penetration of BTZ-043 into the lesion was observed | Papp B→A at 120 min ([5]; Caco-2): 6.9 to 12.9 ×10⁻⁶ cm/s | Papp at 120 min, 1 µg/mL ([5]; Caco-2, Mean Papp): 9.44 ×10⁻⁶ cm/s | Papp at 120 min, 4 µg/mL ([5]; Caco-2, Mean Papp): 12.9 ×10⁻⁶ cm/s | BTZ-043 distribution in granulomas by MALDI imaging ([6]; 0.5 h and 2 h after the last administration): higher intensity in the layer of foamy macrophages than in the surrounding tissue and a low intensity in the necrotic center | BTZ-043 distribution in granulomas by MALDI imaging ([6]; 4 h after the last administration): evenly distributed across the granuloma, including a full penetration of the necrotic center | BTZ-043 distribution in granulomas by MALDI imaging ([6]; 8 h post-dose): still detected in the cellular compartment and the necrotic center of the lesion | BTZ-043 distribution in lung section by MALDI imaging ([6]; IL-13tg mouse, 2 h post-dose, 10 µm pixel size): higher abundance in the granuloma areas | Mean intensity ([6]; Left Granuloma, Distance 5 μm): 139.49 | Mean intensity ([6]; Left Granuloma, Distance 15 μm): 156.7 | Mean intensity ([6]; Left Granuloma, Distance 25 μm): 198.34 | Mean intensity ([6]; Left Granuloma, Distance 455 μm): 231.69 | Mean intensity ([6]; Left Granuloma, Distance 465 μm): 177.77 | Mean intensity ([6]; Left Granuloma, Distance 475 μm): 149.66 | Mean intensity ([6]; Left Granuloma, Distance 485 μm): 141.47 | Mean intensity ([6]; Left Granuloma, Distance 495 μm): 108.37 | Mean intensity ([6]; Left Granuloma, Distance -5 μm): 119.73 | Mean intensity ([6]; Left Granuloma, Distance -15 μm): 101.17 | Mean intensity ([6]; Left Granuloma, Distance -25 μm): 94.994 | Mean intensity ([6]; Left Granuloma, Distance -35 μm): 92.517 | Mean intensity ([6]; Left Granuloma, Distance -45 μm): 79.172 | Mean intensity ([6]; Left Granuloma, Distance -55 μm): 80.027 | Mean intensity ([6]; Left Granuloma, Distance -65 μm): 75.696 | Mean intensity ([6]; Left Granuloma, Distance -75 μm): 68.605 | Mean intensity ([6]; Left Granuloma, Distance -85 μm): 57.747 | Mean intensity ([6]; Left Granuloma, Distance -95 μm): 55.134 | Mean intensity ([6]; Left Granuloma, Distance -105 μm): 53.791 | Mean intensity ([6]; Left Granuloma, Distance -115 μm): 50.259 | Mean intensity ([6]; Left Granuloma, Distance -125 μm): 46.467 | Mean intensity ([6]; Left Granuloma, Distance -135 μm): 47.503 | Mean intensity ([6]; Left Granuloma, Distance -145 μm): 45.623 | Mean intensity ([6]; Left Granuloma, Distance -155 μm): 45.907 | Mean intensity ([6]; Left Granuloma, Distance -165 μm): 44.835 | Mean intensity ([6]; Left Granuloma, Distance -175 μm): 48.409 | Mean intensity ([6]; Left Granuloma, Distance -185 μm): 51.437 | Mean intensity ([6]; Left Granuloma, Distance -195 μm): 54.977 | Mean intensity ([6]; Left Granuloma, Distance -205 μm): 58.044 | Mean intensity ([6]; Left Granuloma, Distance -215 μm): 59.813 | Mean intensity ([6]; Left Granuloma, Distance -225 μm): 62.899 | Mean intensity ([6]; Left Granuloma, Distance -235 μm): 60.823 | Mean intensity ([6]; Left Granuloma, Distance -245 μm): 67.44 | Mean intensity ([6]; Left Granuloma, Distance -255 μm): 69.7 | Mean intensity ([6]; Left Granuloma, Distance -265 μm): 69.289 | Mean intensity ([6]; Left Granuloma, Distance -275 μm): 70.893 | Mean intensity ([6]; Left Granuloma, Distance -285 μm): 72.505 | Mean intensity ([6]; Left Granuloma, Distance -295 μm): 79.349 | Mean intensity ([6]; Left Granuloma, Distance -305 μm): 78.856 | Mean intensity ([6]; Left Granuloma, Distance -315 μm): 77.402 | Mean intensity ([6]; Left Granuloma, Distance -325 μm): 81.899 | Mean intensity ([6]; Left Granuloma, Distance -335 μm): 87.061 | Mean intensity ([6]; Left Granuloma, Distance -345 μm): 86.34 | Mean intensity ([6]; Left Granuloma, Distance -355 μm): 78.295 | Mean intensity ([6]; Left Granuloma, Distance -365 μm): 77.954 | Mean intensity ([6]; Left Granuloma, Distance -375 μm): 75.379 | Mean intensity ([6]; Left Granuloma, Distance -385 μm): 74.434 | Mean intensity ([6]; Left Granuloma, Distance -395 μm): 71.834 | Mean intensity ([6]; Left Granuloma, Distance -405 μm): 68.248 | Mean intensity ([6]; Left Granuloma, Distance -415 μm): 72.627 | Mean intensity ([6]; Left Granuloma, Distance -425 μm): 59.053 | Mean intensity ([6]; Left Granuloma, Distance -435 μm): 63.125 | Mean intensity ([6]; Left Granuloma, Distance -445 μm): 62.385 | Mean intensity ([6]; Right Granuloma, Distance 5 μm): 197.71 | Mean intensity ([6]; Right Granuloma, Distance 15 μm): 215.58 | Mean intensity ([6]; Right Granuloma, Distance -5 μm): 125.01 | Mean intensity ([6]; Right Granuloma, Distance -15 μm): 127.96 | Mean intensity ([6]; Right Granuloma, Distance -25 μm): 106.25 | Mean intensity ([6]; Right Granuloma, Distance -35 μm): 89.663 | Mean intensity ([6]; Right Granuloma, Distance -45 μm): 81.533 | Mean intensity ([6]; Right Granuloma, Distance -55 μm): 68.214 | Mean intensity ([6]; Right Granuloma, Distance -65 μm): 66.172 | Mean intensity ([6]; Right Granuloma, Distance -75 μm): 61.043 | Mean intensity ([6]; Right Granuloma, Distance -85 μm): 54.281 | Mean intensity ([6]; Right Granuloma, Distance -95 μm): 56.521 | Mean intensity ([6]; Right Granuloma, Distance -105 μm): 53.591 | Mean intensity ([6]; Right Granuloma, Distance -115 μm): 52.38 | Mean intensity ([6]; Right Granuloma, Distance -125 μm): 54.234 | Mean intensity ([6]; Right Granuloma, Distance -135 μm): 48.899 | Mean intensity ([6]; Right Granuloma, Distance -145 μm): 60.041 | Mean intensity ([6]; Right Granuloma, Distance -155 μm): 59.51 | Mean intensity ([6]; Right Granuloma, Distance -165 μm): 58.931 | Mean intensity ([6]; Right Granuloma, Distance -175 μm): 63.443 | Mean intensity ([6]; Right Granuloma, Distance -185 μm): 66.482 | Mean intensity ([6]; Right Granuloma, Distance -195 μm): 69.634 | Mean intensity ([6]; Right Granuloma, Distance -205 μm): 66.172 | Mean intensity ([6]; Right Granuloma, Distance -215 μm): 74.546 | Mean intensity ([6]; Right Granuloma, Distance -225 μm): 72.092 | Mean intensity ([6]; Right Granuloma, Distance -235 μm): 66.755 | Mean intensity ([6]; Right Granuloma, Distance -245 μm): 74.961 | Mean intensity ([6]; Right Granuloma, Distance -255 μm): 64.422 | Mean intensity ([6]; Right Granuloma, Distance -265 μm): 67.123 | Mean intensity ([6]; Right Granuloma, Distance -275 μm): 62.093 | Mean intensity ([6]; Right Granuloma, Distance -285 μm): 63.383 | Mean intensity ([6]; Right Granuloma, Distance -295 μm): 60.578 | Mean intensity ([6]; Right Granuloma, Distance -305 μm): 57.529 | Mean intensity ([6]; Right Granuloma, Distance -315 μm): 54.535 | Mean intensity ([6]; Right Granuloma, Distance -325 μm): 51.043 | Mean intensity ([6]; Right Granuloma, Distance -335 μm): 51.438 | Mean intensity ([6]; Right Granuloma, Distance -345 μm): 52.76 | Mean intensity ([6]; Right Granuloma, Distance -355 μm): 52.538 | Mean intensity ([6]; Right Granuloma, Distance -365 μm): 48.918 | Mean intensity ([6]; Right Granuloma, Distance -375 μm): 51.113 | Mean intensity ([6]; Right Granuloma, Distance -385 μm): 46.016 | Mean intensity ([6]; Right Granuloma, Distance -395 μm): 55.943 | Mean intensity ([6]; Right Granuloma, Distance -405 μm): 55.946 | Mean intensity ([6]; Right Granuloma, Distance -415 μm): 56.244 | Mean intensity ([6]; Right Granuloma, Distance -425 μm): 54.068 | Mean intensity ([6]; Right Granuloma, Distance -435 μm): 59.943 | Mean intensity ([6]; Right Granuloma, Distance -445 μm): 57.116
